From patent US12239645B2, “Targeted dosing for the treatment of complement mediated disorders” (Achillion Pharmaceuticals, Inc., priority 2018, dated 2025)
Read-outs that look alike come from different tables or passages of the source.

Experiment: Multiple ascending dose (MAD) study: multiple-dose pharmacokinetics
Type: in vivo, human
Conditions: for concentration at 120 h: Day 6, 0 hr post-dose (120 h); for concentration at 120 h / concentration at 132 h / concentration at 144 h / concentration at 156 h / concentration at 168 h / concentration at 192 h / concentration at 288 h / concentration at 300 h / concentration at 312 h / concentration at 324 h: read-out: Pre-dose (trough) plasma concentration, Mean; for concentration at 132 h: Day 6, 12 hr post-dose (132 h); for concentration at 144 h: Day 7, 0 hr post-dose (144 h); for concentration at 156 h: Day 7, 12 hr post-dose (156 h); for concentration at 168 h: Day 8, 0 hr post-dose (168 h); for concentration at 192 h: Day 9, 0 hr post-dose (192 h); for concentration at 288 h: Day 13, 0 hr post-dose (288 h); for concentration at 300 h: Day 13, 12 hr post-dose (300 h); for concentration at 312 h: Day 14, 0 hr post-dose (312 h); for concentration at 324 h: Day 14, 12 hr post-dose (324 h); for Cmax: read-out: Cmax, Mean
Procedure: A multiple ascending dose (MAD) study of Compound 1 with two additional single-dose cohorts was also completed. […] Secondary objectives included evaluation of the pharmacokinetic (PK) profile and the relationship between Compound 1 PK and pharmacodynamic (PD) characteristics, that is, the inhibition of complement alternative pathway (AP) activity (PK/PD). In the MAD study, multiple-dose pharmacokinetics and pharmacodynamics of Compound 1 were evaluated in four dose groups administered Compound 1 (40, 80, 120 and 200 mg BID) in the fasted state for 14-days (Table 3). Eight subjects received active drug in each group; eight subjects received placebo in the first dose group (40 mg) and two subjects received placebo in each of the other three dose groups. Two additional cohorts were administered Compound 1 at single doses of 240 mg (fasted subjects) and 120 mg (fed subjects) (Table 3). The two single-dose cohorts each comprised six subjects receiving active drug and two subjects receiving placebo. Plasma and serum samples for PK and PD assessment were collected on selected days prior to dosing (at local troughs), and on days 1, 7, and 14 at 0.5-hour to 2-hour intervals for more detailed assessment.

[1] = human, plasma, oral, 40 mg, 40 mg BID × 14 Days, Day 1
[2] = human, plasma, oral, 40 mg, 40 mg BID × 14 Days, Day 7
[3] = human, plasma, oral, 40 mg, 40 mg BID × 14 Days, Day 14
[4] = human, plasma, oral, 80 mg, 80 mg BID × 14 Days, Day 1
[5] = human, plasma, oral, 80 mg, 80 mg BID × 14 Days, Day 7
[6] = human, plasma, oral, 80 mg, 80 mg BID × 14 Days, Day 14
[7] = human, plasma, oral, 80 mg, 80 mg BID

Mean pre-dose concentrations at steady-state, range (40 mg BID): 15.6 to 23.5 ng/mL | Mean pre-dose concentrations at steady-state, range (80 mg BID): 45.9 to 83.7 ng/mL | Mean pre-dose concentrations at steady-state, range (120 mg BID): 80.6 to 153 ng/mL | Mean pre-dose concentrations at steady-state, range (200 mg BID): 247 to 392 ng/mL | concentration at 120 h (human, plasma, oral, 40 mg BID): 27.8 ng/mL | concentration at 132 h (human, plasma, oral, 40 mg BID): 17.9 ng/mL | concentration at 144 h (human, plasma, oral, 40 mg BID): 24.3 ng/mL | concentration at 156 h (human, plasma, oral, 40 mg BID): 15.7 ng/mL | concentration at 168 h (human, plasma, oral, 40 mg BID): 27.8 ng/mL | concentration at 192 h (human, plasma, oral, 40 mg BID): 26.9 ng/mL | concentration at 288 h (human, plasma, oral, 40 mg BID): 23.5 ng/mL | concentration at 300 h (human, plasma, oral, 40 mg BID): 15.3 ng/mL | concentration at 312 h (human, plasma, oral, 40 mg BID): 25.2 ng/mL | concentration at 324 h (human, plasma, oral, 40 mg BID): 16.2 ng/mL | concentration at 12 h (human, plasma, oral, 40 mg BID, all 12 hr (evening) troughs, read-out: Mean C(12), steady-state trough): 15.6 ng/mL | Tmax [1]: 1.56 h | AUC(0-t) (human, plasma, oral, 40 mg, 40 mg BID × 14 Days, Day 1, read-out: AUC(0-12), Mean): 392 ng·h/mL | Cmax [1]: 107 ng/mL | Tmax [2]: 1.8 h | AUC(0-t) (human, plasma, oral, 40 mg, 40 mg BID × 14 Days, Day 7, read-out: AUC(0-12), Mean): 741 ng·h/mL | AUC(0-t) (human, plasma, oral, 40 mg, 40 mg BID × 14 Days, Day 7, read-out: AUC(0-24), Mean): 1480 ng·h/mL | Cmax [2]: 169 ng/mL | Tmax [3]: 1.58 h | AUC(0-t) (human, plasma, oral, 40 mg, 40 mg BID × 14 Days, Day 14, read-out: AUC(0-12), Mean): 732 ng·h/mL | AUC(0-t) (human, plasma, oral, 40 mg, 40 mg BID × 14 Days, Day 14, read-out: AUC(0-24), Mean): 1460 ng·h/mL | Cmax [3]: 156 ng/mL | concentration at 156 h (human, plasma, oral, 80 mg BID): 43.7 ng/mL | concentration at 168 h (human, plasma, oral, 80 mg BID): 109 ng/mL | concentration at 192 h (human, plasma, oral, 80 mg BID): 102 ng/mL | concentration at 288 h (human, plasma, oral, 80 mg BID): 63.3 ng/mL | concentration at 300 h (human, plasma, oral, 80 mg BID): 45.2 ng/mL | concentration at 312 h (human, plasma, oral, 80 mg BID): 85 ng/mL | Tmax [4]: 1.79 h | AUC(0-t) (human, plasma, oral, 80 mg, 80 mg BID × 14 Days, Day 1, read-out: AUC(0-12), Mean): 856 ng·h/mL | Cmax [4]: 207 ng/mL | Tmax [5]: 2 h | AUC(0-t) (human, plasma, oral, 80 mg, 80 mg BID × 14 Days, Day 7, read-out: AUC(0-12), Mean): 1990 ng·h/mL | AUC(0-t) (human, plasma, oral, 80 mg, 80 mg BID × 14 Days, Day 7, read-out: AUC(0-24), Mean): 3990 ng·h/mL | Cmax [5]: 472 ng/mL | Tmax [6]: 2.14 h | AUC(0-t) (human, plasma, oral, 80 mg, 80 mg BID × 14 Days, Day 14, read-out: AUC(0-12), Mean): 1980 ng·h/mL | AUC(0-t) (human, plasma, oral, 80 mg, 80 mg BID × 14 Days, Day 14, read-out: AUC(0-24), Mean): 3970 ng·h/mL | Cmax [6]: 453 ng/mL | concentration at 120 h [7]: 73.8 ng/mL | concentration at 132 h [7]: 52.1 ng/mL | concentration at 144 h [7]: 69.1 ng/mL | concentration at 324 h [7]: 42.5 ng/mL | concentration at 12 hr (human, plasma, oral, 80 mg, 80 mg BID, all 12 hr (evening) troughs, read-out: Mean C(12), steady-state trough): 45.9 ng/mL | concentration at 12 h (human, plasma, oral, 120 mg BID, all 12 hr (evening) troughs, read-out: Mean C(12), steady-state trough): ~80 ng/mL | Tmax (human, plasma, oral, 120 mg, 120 mg BID × 14 Days, Day 1): 2 h
Structure (SMILES): CC(=O)c1nn(CC(=O)N2[C@H](C(=O)Nc3nc(Br)ccc3C)C[C@@]3(C)C[C@@H]23)c2ccc(-c3cnc(C)nc3)cc12 [Compound 1, (1R,3S,5R)-2-(2-(3-acetyl-5-(2-methylpyrimidin-5-yl)-1H-indazol-1-yl)acetyl)-N-(6-bromo-3-methylpyridin-2-yl)-5-methyl-2-azabicyclo[3.1.0]hexane-3-carboxamide]
